Measurements as given in patent US20250295678A1, “ULTRA LOW DOSAGE ZOLEDRONIC ACID FOR TREATMENT OF RETINAL DISEASE” (The Regents of the University of California, priority 2022, published 2025).
Entries after “also recorded” stand apart in the source; their conditions may differ.

What was measured:
[1] = test system: primary RPE cultures; test: Ceramide in primary RPE cultures treated with adiporon; assay type: cell-based, porcine; settings: 0.01-1 μM, 3 h
[2] = test system: polarized primary RPE cultures; test: Complement-mediated mitochondrial fragmentation in polarized primary RPE monolayers (A2E + NHS, MitoTracker live imaging); assay type: cell-based, porcine
Protocol: Highly differentiated polarized primary RPE cultures were established from freshly harvested porcine eyes as described (Toops et al., 2014). To induce complement-mediate mitochondrial injury, RPE monolayers were treated with the lipofuscin bisretinoid A2E, which compromises mechanisms that protect the RPE from complement activation (Tan et al., 2016). RPE cells were exposed to active complement components (10% normal human serum, NHS, for 10 min at 37° C.) to induce complement activation on the RPE cell surface. […] After NHS exposure, cells were treated with 1 μM zoledronic acid for 3 h. RPE mitochondria were labeled with MitoTracker Deep Red and cells were imaged live on a Nikon spinning disc confocal microscopy as we have described (Tan et al., 2016; La Cunza et al., 2021). Mitochondrial surfaces were reconstructed from 4-dimensional images using Imaris (Bitplane).
Highly differentiated polarized primary RPE cultures were established from freshly harvested porcine eyes as described (Toops et al., 2014). To induce complement-mediate mitochondrial injury, RPE monolayers were treated with the lipofuscin bisretinoid A2E, which compromises mechanisms that protect the RPE from complement activation (Tan et al., 2016). RPE cells were exposed to active complement components (10% normal human serum, NHS, for 10 min at 37° C.) to induce complement activation on the RPE cell surface. […]

[3] = biological target: T1, acid sphingomyelinase (ASM) (Homo sapiens, UniProt P17405); settings: functional ASM inhibitor, prior publication; cited from earlier work
T1 sequence (P17405 47-631): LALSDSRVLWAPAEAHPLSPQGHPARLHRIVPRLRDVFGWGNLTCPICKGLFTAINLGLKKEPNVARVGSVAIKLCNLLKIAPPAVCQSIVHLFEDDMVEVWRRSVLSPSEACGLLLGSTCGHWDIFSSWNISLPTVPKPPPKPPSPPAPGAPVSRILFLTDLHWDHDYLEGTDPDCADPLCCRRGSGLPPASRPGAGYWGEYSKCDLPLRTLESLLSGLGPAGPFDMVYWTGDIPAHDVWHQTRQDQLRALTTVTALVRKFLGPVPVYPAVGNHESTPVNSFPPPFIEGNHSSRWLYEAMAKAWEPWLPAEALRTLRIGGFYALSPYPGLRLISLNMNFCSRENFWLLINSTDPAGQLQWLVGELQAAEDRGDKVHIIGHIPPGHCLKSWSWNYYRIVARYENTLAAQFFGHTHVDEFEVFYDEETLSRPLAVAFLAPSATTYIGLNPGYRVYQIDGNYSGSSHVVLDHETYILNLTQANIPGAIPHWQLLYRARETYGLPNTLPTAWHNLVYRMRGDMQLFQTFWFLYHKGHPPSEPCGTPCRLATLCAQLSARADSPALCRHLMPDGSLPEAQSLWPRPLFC

Structure (SMILES)	ceramide in primary RPE cultures [1]	complement-mediated mitochondrial fragmentation in the RPE in vitro ([2]; 1 μM for 3 h after NHS exposure (FIG. 5, FIG. 9))	complement-induced mitochondrial injury in primary RPE cultures ([2]; 0.01-1 μM, 3 h (0.01 μM data not shown))	ceramide accumulation (prior work) [3]
O=C(COc1ccc(C(=O)c2ccccc2)cc1)NC1CCN(Cc2ccccc2)CC1 [adiporon]	effective in decreasing ceramide	prevented complement-mediated mitochondrial fragmentation	preventing complement-induced mitochondrial injury	
CNCCCN1c2ccccc2CCc2ccccc21 [desipramine]				decreases ceramide alone; also recorded: can effectively inhibit ceramide accumulation
